Reference: patent US8987445B2, “Sulfonamide compounds having TRPM8 antagonistic activity” (Mitsubishi Tanabe Pharma Corporation, priority 2011, dated 2015)

These compounds were tested against human TRPM8 (Homo sapiens (Human), UniProt Q7Z2W7) (assay: TRPM8 inhibition assay (menthol-induced calcium influx, FDSS)). Details: HEK293 cells stably expressing human TRPM8; 100 μM menthol; Fura-2AM Ca2+ signal; read-out: TRPM8 Blocking Test (IC50).
Type: cell-based
Procedure: The functional activity of compounds was determined by measuring changes in intracellular calcium concentration using a Ca^2+ sensitive fluorescent dye. The changes in fluorescent signal were monitored by the cell imaging technology by Hamamatsu Photonics's Functional Drug Screening System (FDSS). […] HEK293 cells stably expressing human TRPM8 were grown in flasks. On assay day, the culture medium was removed, and cells were washed with phosphate-buffered saline (PBS) and harvested with PBS containing 2 mM ethylenediaminetetraacetic acid, disodium salt (EDTA, 2Na). […] Subsequently, suspended 20,000 to 50,000 cells per well were incubated with test compound (at varying concentrations) in each well for 20 min at 37° C. Changes in intracellular Ca^2+ evoked by 100 μM menthol were measured for 2 min using FDSS. IC50 vales were determined from four-point concentration-response studies. Curves were generated using the average of quadruplicate wells for each data point.

Sequence of human TRPM8 (Q7Z2W7 whole entry): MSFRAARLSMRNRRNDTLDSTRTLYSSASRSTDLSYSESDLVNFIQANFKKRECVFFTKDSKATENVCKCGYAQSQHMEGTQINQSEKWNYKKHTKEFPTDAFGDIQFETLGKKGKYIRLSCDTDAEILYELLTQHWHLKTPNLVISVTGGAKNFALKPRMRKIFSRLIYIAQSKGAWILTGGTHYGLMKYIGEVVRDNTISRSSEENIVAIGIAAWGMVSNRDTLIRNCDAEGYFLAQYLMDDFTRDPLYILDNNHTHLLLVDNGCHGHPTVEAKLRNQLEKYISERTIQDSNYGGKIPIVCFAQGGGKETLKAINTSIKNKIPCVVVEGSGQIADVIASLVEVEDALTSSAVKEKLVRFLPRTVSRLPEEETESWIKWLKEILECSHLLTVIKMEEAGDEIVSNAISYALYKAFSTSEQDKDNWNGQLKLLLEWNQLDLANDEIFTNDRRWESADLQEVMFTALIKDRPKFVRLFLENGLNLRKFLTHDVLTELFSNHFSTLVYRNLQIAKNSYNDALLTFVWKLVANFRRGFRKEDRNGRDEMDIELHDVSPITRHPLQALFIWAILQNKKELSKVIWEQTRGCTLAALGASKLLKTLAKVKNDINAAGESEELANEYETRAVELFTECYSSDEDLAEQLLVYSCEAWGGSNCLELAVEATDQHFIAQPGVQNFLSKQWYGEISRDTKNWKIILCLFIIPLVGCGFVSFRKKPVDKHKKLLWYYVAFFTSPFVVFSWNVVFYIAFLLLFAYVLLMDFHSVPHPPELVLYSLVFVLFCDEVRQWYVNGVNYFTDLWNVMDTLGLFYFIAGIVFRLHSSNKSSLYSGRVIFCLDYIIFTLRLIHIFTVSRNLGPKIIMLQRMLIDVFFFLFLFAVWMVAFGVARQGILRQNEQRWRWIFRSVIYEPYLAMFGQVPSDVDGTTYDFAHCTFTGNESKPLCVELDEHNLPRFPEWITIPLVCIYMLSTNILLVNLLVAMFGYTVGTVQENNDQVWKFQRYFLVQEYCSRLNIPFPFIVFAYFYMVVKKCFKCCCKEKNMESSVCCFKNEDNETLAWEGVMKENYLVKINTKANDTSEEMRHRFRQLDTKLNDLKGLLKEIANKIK

Row | Structure (SMILES) | IC50
1 | Cc1c(N(Cc2ccc(C(O)(C(F)(F)F)C(F)(F)F)cc2)S(=O)(=O)c2ccc(C(=O)O)cc2)ncc2ccccc12 [Example 128] | 0.04 µM
2 | O=C(O)c1ccc(S(=O)(=O)N(Cc2ccc(OC(F)(F)F)cc2)c2ncc(Cl)c3ccccc23)cc1 [Example 130] | 0.094 µM
3 | Cc1c(N(Cc2ccc(F)c(C(F)(F)F)c2)S(=O)(=O)c2ccc(C(=O)O)cc2)nc(C2CC2)c2ccccc12 [Example 132] | 0.0038 µM
4 | Cc1cc2cccc(Cl)c2nc1N(Cc1ccc(OC(F)(F)F)cc1)S(=O)(=O)c1ccc(C(=O)O)cc1 [Example 133] | 0.0043 µM
5 | Cc1cc2ccc(Cl)cc2nc1N(Cc1ccc(OC(F)(F)F)cc1)S(=O)(=O)c1ccc(C(=O)O)cc1 [Example 134] | 0.695 µM
6 | Cc1ccc2cnc(N(Cc3ccc(OC(F)(F)F)cc3)S(=O)(=O)c3ccc(C(=O)O)cc3)c(C)c2c1 [Example 135] | 0.136 µM
7 | Cc1cccc2c(C)c(N(Cc3ccc(OC(F)(F)F)cc3)S(=O)(=O)c3ccc(C(=O)O)cc3)ncc12 [Example 136] | 0.031 µM
8 | O=C(O)c1ccc(S(=O)(=O)N(Cc2ccc(OC(F)(F)F)cc2)c2cc3ccccc3c(Br)n2)cc1 [Example 143] | 0.131 µM
9 | Cc1cc2cc(F)ccc2nc1N(Cc1ccc(OC(F)(F)F)cc1)S(=O)(=O)c1ccc(C(=O)O)cc1 [Example 145] | 0.091 µM
10 | Cc1cc2ccc(F)cc2nc1N(Cc1ccc(OC(F)(F)F)cc1)S(=O)(=O)c1ccc(C(=O)O)cc1 [Example 146] | 0.07 µM
11 | CC(C)c1nc(N(Cc2ccc(OC(F)(F)F)cc2)S(=O)(=O)c2ccc(C(=O)O)cc2)c(C(C)C)c2ccccc12 [Example 150] | 0.048 µM
12 | Cc1c(N(Cc2ccc(C(C)(O)C(F)(F)F)c(F)c2)S(=O)(=O)c2ccc(C(=O)O)cc2)ncc2ccccc12 (stereo not shown) [Example 169] | 0.055 µM
13 | Cc1c(N(Cc2ccc(CC3CC3)cc2F)S(=O)(=O)c2ccc(C(=O)O)cc2)ncc2ccccc12 [Example 171] | 0.0071 µM
14 | Cc1c(N(Cc2ccc3c(Cl)n[nH]c3c2)S(=O)(=O)c2ccc(C(=O)O)cc2)ncc2ccccc12 [Example 176] | 0.021 µM
15 | Cc1c(N(Cc2ccc3cn[nH]c3c2)S(=O)(=O)c2ccc(C(=O)O)cc2)ncc2ccccc12 [Example 178] | 0.601 µM
16 | Cc1c(N(Cc2ccc(C(F)(F)C3CC3)c(Cl)c2)S(=O)(=O)c2ccc(C(=O)O)cc2)nc(C2CC2)c2ccccc12 [Example 181] | 0.001 µM
17 | Cc1cc2ccccc2nc1N(Cc1ccc(CC2CC2)cc1)S(=O)(=O)c1ccc(C(=O)O)cc1 [Example 183] | 0.0077 µM
18 | Cc1c(N(Cc2ccc(C(F)(F)C3CCC3)cc2)S(=O)(=O)c2ccc(C(=O)O)cc2)ncc2ccccc12 [Example 189] | 0.0017 µM
19 | Cc1c(N(Cc2cc3ccc(Cl)cc3s2)S(=O)(=O)c2ccc(C(=O)O)cc2)ncc2ccccc12 [Example 198] | 0.011 µM
20 | Cc1c(N(Cc2cc3cc(Cl)ccc3s2)S(=O)(=O)c2ccc(C(=O)O)cc2)ncc2ccccc12 [Example 200] | 0.0054 µM
21 | Cc1c(N(Cc2ccc(C(F)(F)C3CC3)c(Cl)c2)S(=O)(=O)c2ccc(C(=O)O)cc2)ncc2ccccc12 [Example 201] | 0.0006 µM
22 | Cc1c(N(Cc2ccc(C(F)(F)C3CC3)c(F)c2)S(=O)(=O)c2ccc(C(=O)O)cc2)ncc2ccccc12 [Example 203] | 0.0015 µM
23 | Cc1cc2ccccc2nc1N(Cc1ccc(C(F)(F)C2CC2)c(F)c1)S(=O)(=O)c1ccc(C(=O)O)cc1 [Example 204] | 0.0031 µM
24 | Cc1cc2ccccc2nc1N(Cc1cccc(C(F)(F)C2CC2)c1)S(=O)(=O)c1ccc(C(=O)O)cc1 [Example 206] | 0.021 µM
25 | Cc1c(N(Cc2ccc(F)c(C(F)(F)C3CC3)c2)S(=O)(=O)c2ccc(C(=O)O)cc2)ncc2ccccc12 [Example 207] | 0.011 µM
26 | Cc1cc2ccccc2nc1N(Cc1ccc(F)c(C(F)(F)C2CC2)c1)S(=O)(=O)c1ccc(C(=O)O)cc1 [Example 208] | 0.0096 µM
27 | Cc1c(N(Cc2ccc(C(F)(F)C3(C)CC3)cc2)S(=O)(=O)c2ccc(C(=O)O)cc2)ncc2ccccc12 [Example 209] | 0.001 µM
28 | Cc1c(N(Cc2ccc(OC(F)(F)F)cc2)S(=O)(=O)c2ccc(C(=O)O)cc2)nc(-c2cccnc2)c2ccccc12 [Example 213] | 0.116 µM
29 | CCc1nc(N(Cc2ccc(OC(F)(F)F)cc2)S(=O)(=O)c2ccc(C(=O)O)cc2)c(C)c2ccccc12 [Example 214] | 0.0081 µM

Further compounds by falling IC50, results first:

Row | IC50 | Structure (SMILES)
30 | 0.987 µM | Cn1ccc2c(N(Cc3ccc(OC(F)(F)F)cc3)S(=O)(=O)c3ccc(C(=O)O)cc3)ncc(Cl)c21 [Example 211]
31 | 0.287 µM | O=C(O)c1ccc(S(=O)(=O)N(Cc2ccc(OC(F)(F)F)cc2)c2cc3c(Cl)cccc3c(Br)n2)cc1 [Example 148]
32 | 0.155 µM | Cc1nc2cc(CN(c3ncc4ccccc4c3C)S(=O)(=O)c3ccc(C(=O)O)cc3)ccc2s1 [Example 188]
33 | 0.148 µM | Cc1nc2ccc(CN(c3ncc4ccccc4c3C)S(=O)(=O)c3ccc(C(=O)O)cc3)cc2s1 [Example 190]
34 | 0.128 µM | O=C(O)c1ccc(S(=O)(=O)N(c2ncc3ccccc3c2C2CC2)C2CCc3cc(OC(F)(F)F)ccc32)cc1 (stereo not shown) [Example 187]
35 | 0.109 µM | Cc1ccc2c(C)c(N(Cc3ccc(OC(F)(F)F)cc3)S(=O)(=O)c3ccc(C(=O)O)cc3)ncc2c1 [Example 131]
36 | 0.095 µM | CC(=O)c1ccc(S(=O)(=O)N(Cc2ccc(OC(F)(F)F)cc2)c2ncc3ccccc3c2C)cc1 [Example 152, 4-acetyl-N-(4-methylisoquinolin-3-yl)-N-[4-(trifluoromethoxy)benzyl]benzenesulfonamide]
37 | 0.078 µM | Cc1c(N(Cc2ccc3c(c2)CCC3(O)C(F)(F)F)S(=O)(=O)c2ccc(C(=O)O)cc2)ncc2ccccc12 (stereo not shown) [Example 173]
38 | 0.075 µM | O=C(O)c1ccc(S(=O)(=O)N(Cc2ccc(OC(F)(F)F)cc2)c2ncc(Cl)c3sccc23)cc1 [Example 212]
39 | 0.054 µM | CCc1cc2ccccc2nc1N(Cc1ccc(OC(F)(F)F)cc1)S(=O)(=O)c1ccc(C(=O)O)cc1 [Example 144]
40 | 0.035 µM | Cc1c(N(Cc2ccc(C(C)(O)C(F)(F)C(F)(F)F)cc2)S(=O)(=O)c2ccc(C(=O)O)cc2)ncc2ccccc12 (stereo not shown) [Example 174]
41 | 0.031 µM | Cc1c(N(Cc2cccc(C(F)(F)C3CC3)c2)S(=O)(=O)c2ccc(C(=O)O)cc2)ncc2ccccc12 [Example 205]
42 | 0.03 µM | Cc1c(N(Cc2ccc(C(O)(C3CC3)C(F)(F)F)cc2)S(=O)(=O)c2ccc(C(=O)O)cc2)ncc2ccccc12 (stereo not shown) [Example 177]
43 | 0.023 µM | O=C(O)c1ccc(S(=O)(=O)N(Cc2ccc(OC(F)(F)F)cc2)c2cc3ccccc3cn2)cc1 [Example 156]
44 | 0.015 µM | Cc1c(N(Cc2ccc(OC(F)(F)F)cc2)S(=O)(=O)c2ccc(C(=O)O)cc2)nc(Br)c2ccccc12 [Example 129]
45 | 0.015 µM | Cc1c(N(Cc2ccc(C(C)(O)C(F)(F)F)c(Cl)c2)S(=O)(=O)c2ccc(C(=O)O)cc2)ncc2ccccc12 (stereo not shown) [Example 172]
46 | 0.012 µM | Cc1c(N(Cc2ccccc2)S(=O)(=O)c2ccc(C(=O)O)cc2)nc(C2CC2)c2ccccc12 [Example 139]
47 | 0.0088 µM | Cc1c(N(Cc2ccc(COC(F)(F)F)cc2)S(=O)(=O)c2ccc(C(=O)O)cc2)ncc2ccccc12 [Example 192]

Row | IC50 | Structure (SMILES)
48 | 0.0082 µM | Cc1c(N(Cc2ccc(OC(F)(F)F)cc2)S(=O)(=O)c2ccc(C(=O)O)cc2)nc(C2CC2)c2c(C)cccc12 [Example 215]
49 | 0.0069 µM | Cc1cc2ccccc2nc1N(Cc1ccc2c(c1)CCCC2)S(=O)(=O)c1ccc(C(=O)O)cc1 [Example 180]
50 | 0.0062 µM | CCc1c(N(Cc2ccc(OC(F)(F)F)cc2)S(=O)(=O)c2ccc(C(=O)O)cc2)ncc2ccccc12 [Example 155]
51 | 0.006 µM | Cc1c(N(Cc2cc3cc(F)cc(F)c3s2)S(=O)(=O)c2ccc(C(=O)O)cc2)ncc2ccccc12 [Example 195]
52 | 0.0046 µM | Cc1c(N(Cc2ccc(C(F)(F)C3CC3)cc2)S(=O)(=O)c2ccc(C(=O)O)cc2)ncc2ccccc12 [Example 191]
53 | 0.0046 µM | Cc1c(N(Cc2sc3ccccc3c2Cl)S(=O)(=O)c2ccc(C(=O)O)cc2)ncc2ccccc12 [Example 197]
54 | 0.0044 µM | Cc1c(N(Cc2cc(F)c3c(c2)CCC3)S(=O)(=O)c2ccc(C(=O)O)cc2)ncc2ccccc12 [Example 175]
55 | 0.004 µM | Cc1cc2ccccc2nc1N(Cc1ccc(C(F)(F)C2CC2)cc1)S(=O)(=O)c1ccc(C(=O)O)cc1 [Example 182]
56 | 0.0039 µM | Cc1c(N(Cc2ccc(CC3(C(F)(F)F)CC3)cc2)S(=O)(=O)c2ccc(C(=O)O)cc2)ncc2ccccc12 [Example 193]
57 | 0.0039 µM | Cc1c(N(Cc2cc3cccc(Cl)c3s2)S(=O)(=O)c2ccc(C(=O)O)cc2)ncc2ccccc12 [Example 199]
58 | 0.0031 µM | Cc1cccc2cnc(N(Cc3ccc(OC(F)(F)F)cc3)S(=O)(=O)c3ccc(C(=O)O)cc3)c(C)c12 [Example 137]
59 | 0.0029 µM | Cc1c(N(Cc2ccc(CC3CC3)c(F)c2)S(=O)(=O)c2ccc(C(=O)O)cc2)ncc2ccccc12 [Example 170]
60 | 0.0023 µM | O=C(O)c1ccc(S(=O)(=O)N(Cc2ccc(OC(F)(F)F)cc2)c2ncc3ccccc3c2Br)cc1 [Example 154]
61 | 0.0022 µM | Cc1c(N(Cc2cc3c(Cl)cccc3s2)S(=O)(=O)c2ccc(C(=O)O)cc2)ncc2ccccc12 [Example 196]
62 | 0.0021 µM | Cc1c(N(C2CCc3cc(OC(F)(F)F)ccc32)S(=O)(=O)c2ccc(C(=O)O)cc2)ncc2ccccc12 (stereo not shown) [Example 179]
63 | 0.0014 µM | Cc1cc2ccccc2nc1N(Cc1ccc(C(F)(F)C2CC2)c(Cl)c1)S(=O)(=O)c1ccc(C(=O)O)cc1 [Example 202]
64 | 0.0013 µM | Cc1c(N(Cc2cc3c(F)cc(F)cc3s2)S(=O)(=O)c2ccc(C(=O)O)cc2)ncc2ccccc12 [Example 194]
